From patent US20260000754A1, “NANOPARTICLES AS CARRIER-SYSTEM FOR ADJUVANTS/ANTIGENS” (UNIVERSITAT HEIDELBERG, priority 2020, published 2026)

How the values were obtained:
[1] = Solubility enhancement of epitopes (solubility in water); assay type: physicochemical
From the text: On the N-terminal site of the enzymatically cleaved linker the addition of polar amino acids can be used to enhance the solubility of the whole peptide. […] The use in a human vaccine is difficult. In animal studies researchers dissolve it in DMSO. The solubility after e.g. subcutaneous injection is questionable: dilution might result in precipitation of large peptide particles, which is very unfavorable for transport to lymphnodes.
According to the invention the epitope […] was enlarged on the N-terminal site with the enzymatic cleavable linker Val-Cit and the cationic solubilizing sequence Lys-Lys-Lys, leading to • KKKV-Cit-[…].
After endosomal and/or cytosolic cleavage by cathepsin B the native HPV 16 E782-90 is released. Also the remaining KKKV-Cit is not immunogenic, due to the fact it's too short to be presented at any MHC I or MHC II.

DC2.4 cells = experiment: MHC I cross presentation of OVA257-264 in DC2.4 cells; assay type: cell-based, murine; conditions: 6 h incubation with 5 μM solution, with or without SiO2—PO3H2; 25-D1.16 antibody, flow cytometry
Protocol: In the experiment, the OVA257-264 presentation efficacy after incubation of 5·10^4 DC2.4 cells with 5 μM solutions of full length protein (OVA=Ovalbumin), N- and C-terminal elongated epitope (OVA247-264A5K, a so called synthetic long peptide (SLP)), N-terminal elongated epitope with a Cathepsin B cleavable sequence (exemplary shown RW-Cit-OVA257-264) or native epitope (OVA 257-264), each with and without nanoparticles, was compared. […] After an incubation time of 6 h, the test substances are removed by washing with phosphate-buffered saline (PBS). In the next step, the cells were incubated with CD16/CD32 antibody in order to block the non-specific binding of the detection antibody to the Fc (Fragment, crystallizable) receptor of the cells. After incubation with 25-D1.16 antibody, the amount of cross-presented OVA257-264 was quantified by flow cytometry.
FIG. 16: OVA257-264 MHC I presentation after 6 h incubation of H2-Kb positive cells with 5 μM solution of native or elongated OVA257-264 epitope or full length OVA protein with or without SiO2—PO3H2. Quantification was carried out by flow cytometry after labeling with 25-D1.16 detection antibody.

[2] = Stability measurement in human serum (HEK-Blue hTLR3 cell readout); assay type: in vitro ADME; conditions: 20% human serum, 37° C., 1 μg poly(I:C)/mL
[3] = Stability measurement in bovine serum (HEK-Blue hTLR3 cell readout); assay type: in vitro ADME; conditions: 60 minutes at 37° C., 5, 10 and 20% FBS
From the text: HEK-Blue™ hTLR3 Cells are designed to measure the stimulation of […] monitoring the activation of NF-kB. HEK-Blue™hTLR3Cells were obtained by co-transfection of the hTLR3 gene and an optimized secreted embryonic alkaline phosphatase (SEAP) reporter gene placed under the control of an NF-kB and AP-1-inducible promoter intoHEK293 cells. Stimulation with a TLR3 ligand activates NF-kB and AP-1 which induce the production of SEAP. Levels of SEAP can be easily determined with HEK-Blue™ Detection, a cell culture medium that allows for real-time detection of SEAP. The hydrolysis of the substrate by SEAP produces a purple/blue color that can be easily detected with the naked eye or measured with a 96 well plate reader (Invivogen).
The serum was used in concentrations of 5, 10 and 20%. A serum concentration of 20% corresponds quite well to the composition of peripheral lymph.
The poly(I:C) payload at SiO2—Arg in this case was about 2.5%. After exposure to FBS 20 μL of the medium were taken and added to 180 μL HEK-Blue™ hTLR3 cells in HEK-Blue™ Detection medium. This mixture was incubated for 13 hours at 37° C. and the plate was analyzed in a 96 well plate reader (Tecan Reader, Type: Infinite M200 Pro).

Molecule | solubility in water [1] | OVA257-264 MHC I presentation (DC2.4 cells) | other results
CC[C@H](C)[C@H](NC(=O)CNC(=O)[C@H](CC(C)C)NC(=O)[C@@H](NC(=O)CNC(=O)[C@H](CCSC)NC(=O)[C@H](CC(C)C)NC(=O)[C@H](CC(C)C)NC(=O)[C@H](CCCNC(N)=O)NC(=O)[C@@H](NC(=O)[C@H](CCCCN)NC(=O)[C@H](CCCCN)NC(=O)[C@@H](N)CCCCN)C(C)C)[C@@H](C)O)C(=O)N[C@H](C(=O)O)C(C)C | excellent |  | 
CC[C@H](C)[C@H](NC(=O)CNC(=O)[C@H](CC(C)C)NC(=O)[C@@H](NC(=O)CNC(=O)[C@H](CCSC)NC(=O)[C@H](CC(C)C)NC(=O)[C@@H](N)CC(C)C)[C@@H](C)O)C(=O)N[C@H](C(=O)O)C(C)C | very bad |  | 
RW-Cit-OVA257-264 |  | presented in significant amounts | 
SIINFEKL [OVA257-264] |  | presented in significant amounts | 
polyinosinic: polycytidylic acid [poly(I:C)] |  |  | % of initial concentration after 60 minutes [2]: 18%; calculated half-life [2]: 24.2 min; stability in fetal bovine serum [3]: clear signs of degradation at higher serum concentrations
